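Test compounds were applied to cells in 96-well plates for 48 hours at 5 doses. The concentration for full growth arrest is given as TGI.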

For one experiment, the system named is SF-268 CNS. The experiment can be described thus: NCI tumour cell line growth inhibition, 48 h.
Take `CC(=O)C(CN1CCCCC1)C(c1ccccc1)c1c(O)c2ccccc2oc1=O` (configuration not stated): the TGI was over 100 µM.

On to `C/C(=N\NC(=S)NC(C)C)c1nc2ncccc2[nH]1`, for which the TGI is over 100 µM.

The compound `O=c1oc2ccccc2c(O)c1C(c1cc(OCc2ccccc2)cc(OCc2ccccc2)c1)c1c(O)c2ccccc2oc1=O` yielded a TGI of 33.3 µM.

`Cc1cccc(N2C(=O)C3ON(C(C(N)=O)c4ccccc4)C(c4c5ccccc5c(Cl)c5ccccc45)C3C2=O)c1C` (configuration not stated) yielded a TGI of 27.3 µM.

For `Cc1cc(-c2nc3ccccc3s2)ccc1NS(=O)(=O)O`, the TGI is over 100 µM.

As for `c1cc(-c2cnc(-c3ccc4c(c3)CCCO4)o2)ccn1`, the TGI came out at 33.2 µM.

The next experiment relates to SF-539 CNS. The experiment can be described thus: NCI tumour cell line growth inhibition, 48 h.
Compound `CC(=O)C(CN1CCCCC1)C(c1ccccc1)c1c(O)c2ccccc2oc1=O` (configuration not stated) displayed a TGI of over 100 µM.

Turning to `C/C(=N\NC(=S)NC(C)C)c1nc2ncccc2[nH]1`, the TGI is over 85 µM.

In turn, `O=c1oc2ccccc2c(O)c1C(c1cc(OCc2ccccc2)cc(OCc2ccccc2)c1)c1c(O)c2ccccc2oc1=O` yielded a TGI of 36.7 µM.

Regarding `Cc1cccc(N2C(=O)C3ON(C(C(N)=O)c4ccccc4)C(c4c5ccccc5c(Cl)c5ccccc45)C3C2=O)c1C` (configuration not stated), the TGI was determined as 16.8 µM.

Take `Cc1cc(-c2nc3ccccc3s2)ccc1NS(=O)(=O)O`: the TGI is over 100 µM.

The compound `c1cc(-c2cnc(-c3ccc4c(c3)CCCO4)o2)ccn1` returned a TGI of 21.8 µM.

The next experiment concerns HOP-92 NSCLC. Description: NCI tumour cell line growth inhibition, 48 h.
The compound `CC(=O)C(CN1CCCCC1)C(c1ccccc1)c1c(O)c2ccccc2oc1=O` (configuration not stated) yielded a TGI of over 100 µM.

`C/C(=N\NC(=S)NC(C)C)c1nc2ncccc2[nH]1` came in with a TGI of 84.3 µM.

The compound `O=c1oc2ccccc2c(O)c1C(c1cc(OCc2ccccc2)cc(OCc2ccccc2)c1)c1c(O)c2ccccc2oc1=O` returned a TGI of over 28.3 µM.

`Cc1cccc(N2C(=O)C3ON(C(C(N)=O)c4ccccc4)C(c4c5ccccc5c(Cl)c5ccccc45)C3C2=O)c1C` (configuration not stated) returned a TGI of 22.6 µM.

In the case of `Cc1cc(-c2nc3ccccc3s2)ccc1NS(=O)(=O)O`, the TGI is over 100 µM.

Turning to `c1cc(-c2cnc(-c3ccc4c(c3)CCCO4)o2)ccn1`, the TGI came to 49.4 µM.

For another experiment, the system named is HOP-62 NSCLC. Description: NCI tumour cell line growth inhibition, 48 h.
As for `CC(=O)C(CN1CCCCC1)C(c1ccccc1)c1c(O)c2ccccc2oc1=O` (configuration not stated), the TGI is over 100 µM.

With `C/C(=N\NC(=S)NC(C)C)c1nc2ncccc2[nH]1`, the TGI was over 64.2 µM.

As for `O=c1oc2ccccc2c(O)c1C(c1cc(OCc2ccccc2)cc(OCc2ccccc2)c1)c1c(O)c2ccccc2oc1=O`, the TGI was 37 µM.

The compound `Cc1cccc(N2C(=O)C3ON(C(C(N)=O)c4ccccc4)C(c4c5ccccc5c(Cl)c5ccccc45)C3C2=O)c1C` (configuration not stated) gave a TGI of 24.4 µM.

In the case of `Cc1cc(-c2nc3ccccc3s2)ccc1NS(=O)(=O)O`, the TGI was over 100 µM.

Turning to `c1cc(-c2cnc(-c3ccc4c(c3)CCCO4)o2)ccn1`, the TGI was 30.1 µM.

A further experiment relates to UO-31 renal. The experiment can be described thus: NCI tumour cell line growth inhibition, 48 h.
With `CC(=O)C(CN1CCCCC1)C(c1ccccc1)c1c(O)c2ccccc2oc1=O` (configuration not stated), the TGI is over 100 µM.

For `C/C(=N\NC(=S)NC(C)C)c1nc2ncccc2[nH]1`, the TGI is 44.9 µM.

The compound `O=c1oc2ccccc2c(O)c1C(c1cc(OCc2ccccc2)cc(OCc2ccccc2)c1)c1c(O)c2ccccc2oc1=O` registered a TGI of 19.9 µM.

Take `Cc1cccc(N2C(=O)C3ON(C(C(N)=O)c4ccccc4)C(c4c5ccccc5c(Cl)c5ccccc45)C3C2=O)c1C` (configuration not stated): the TGI was 24.2 µM.

For the compound `Cc1cc(-c2nc3ccccc3s2)ccc1NS(=O)(=O)O`, the TGI is over 100 µM.

Take `c1cc(-c2cnc(-c3ccc4c(c3)CCCO4)o2)ccn1`: the TGI was 25.3 µM.

Another experiment deals with COLO 205 colon. Description: NCI tumour cell line growth inhibition, 48 h.
`CC(=O)C(CN1CCCCC1)C(c1ccccc1)c1c(O)c2ccccc2oc1=O` (configuration not stated): the TGI was over 100 µM.

On to `C/C(=N\NC(=S)NC(C)C)c1nc2ncccc2[nH]1`, for which the TGI is over 100 µM.

Compound `O=c1oc2ccccc2c(O)c1C(c1cc(OCc2ccccc2)cc(OCc2ccccc2)c1)c1c(O)c2ccccc2oc1=O` came in with a TGI of 33.8 µM.

In turn, `Cc1cccc(N2C(=O)C3ON(C(C(N)=O)c4ccccc4)C(c4c5ccccc5c(Cl)c5ccccc45)C3C2=O)c1C` (configuration not stated) gave a TGI of 16.7 µM.

In the case of `Cc1cc(-c2nc3ccccc3s2)ccc1NS(=O)(=O)O`, the TGI is over 11.9 µM.

`c1cc(-c2cnc(-c3ccc4c(c3)CCCO4)o2)ccn1` registered a TGI of 33.1 µM.

In the next experiment the test system is SN12C renal. Description: NCI tumour cell line growth inhibition, 48 h.
In turn, `CC(=O)C(CN1CCCCC1)C(c1ccccc1)c1c(O)c2ccccc2oc1=O` (configuration not stated) returned a TGI of over 100 µM.

`C/C(=N\NC(=S)NC(C)C)c1nc2ncccc2[nH]1` yielded a TGI of over 100 µM.

In turn, `O=c1oc2ccccc2c(O)c1C(c1cc(OCc2ccccc2)cc(OCc2ccccc2)c1)c1c(O)c2ccccc2oc1=O` came in with a TGI of 21.3 µM.

In turn, `Cc1cccc(N2C(=O)C3ON(C(C(N)=O)c4ccccc4)C(c4c5ccccc5c(Cl)c5ccccc45)C3C2=O)c1C` (configuration not stated) showed a TGI of 15.6 µM.

`Cc1cc(-c2nc3ccccc3s2)ccc1NS(=O)(=O)O`: the TGI was over 100 µM.

In turn, `c1cc(-c2cnc(-c3ccc4c(c3)CCCO4)o2)ccn1` gave a TGI of 46.4 µM.

The next experiment deals with NCI-H522 lung. Description: NCI tumour cell line growth inhibition, 48 h.
For `CC(=O)C(CN1CCCCC1)C(c1ccccc1)c1c(O)c2ccccc2oc1=O` (configuration not stated), the TGI is over 100 µM.

Take `C/C(=N\NC(=S)NC(C)C)c1nc2ncccc2[nH]1`: the TGI is over 76.3 µM.

`O=c1oc2ccccc2c(O)c1C(c1cc(OCc2ccccc2)cc(OCc2ccccc2)c1)c1c(O)c2ccccc2oc1=O` gave a TGI of 37.9 µM.

Regarding `Cc1cccc(N2C(=O)C3ON(C(C(N)=O)c4ccccc4)C(c4c5ccccc5c(Cl)c5ccccc45)C3C2=O)c1C` (configuration not stated), the TGI is over 50 µM.

For `Cc1cc(-c2nc3ccccc3s2)ccc1NS(=O)(=O)O`, the TGI was over 67.3 µM.

`c1cc(-c2cnc(-c3ccc4c(c3)CCCO4)o2)ccn1`: the TGI worked out at 23.4 µM.

Another experiment deals with SNB-75 CNS. The experiment can be described thus: NCI tumour cell line growth inhibition, 48 h.
In the case of `CC(=O)C(CN1CCCCC1)C(c1ccccc1)c1c(O)c2ccccc2oc1=O` (configuration not stated), the TGI was over 100 µM.

In turn, `C/C(=N\NC(=S)NC(C)C)c1nc2ncccc2[nH]1` returned a TGI of over 66.7 µM.

For `O=c1oc2ccccc2c(O)c1C(c1cc(OCc2ccccc2)cc(OCc2ccccc2)c1)c1c(O)c2ccccc2oc1=O`, the TGI was 17 µM.

The compound `Cc1cccc(N2C(=O)C3ON(C(C(N)=O)c4ccccc4)C(c4c5ccccc5c(Cl)c5ccccc45)C3C2=O)c1C` (configuration not stated) registered a TGI of 19.4 µM.

`Cc1cc(-c2nc3ccccc3s2)ccc1NS(=O)(=O)O`: the TGI was over 100 µM.

`c1cc(-c2cnc(-c3ccc4c(c3)CCCO4)o2)ccn1` displayed a TGI of 25.2 µM.

The next experiment relates to T-47D breast. Description: NCI tumour cell line growth inhibition, 48 h.
On to `CC(=O)C(CN1CCCCC1)C(c1ccccc1)c1c(O)c2ccccc2oc1=O` (configuration not stated), for which the TGI was over 100 µM.

As for `C/C(=N\NC(=S)NC(C)C)c1nc2ncccc2[nH]1`, the TGI is over 95.1 µM.

For the compound `O=c1oc2ccccc2c(O)c1C(c1cc(OCc2ccccc2)cc(OCc2ccccc2)c1)c1c(O)c2ccccc2oc1=O`, the TGI is 38.1 µM.

Regarding `Cc1cccc(N2C(=O)C3ON(C(C(N)=O)c4ccccc4)C(c4c5ccccc5c(Cl)c5ccccc45)C3C2=O)c1C` (configuration not stated), the TGI came to 32.1 µM.

`Cc1cc(-c2nc3ccccc3s2)ccc1NS(=O)(=O)O` returned a TGI of over 100 µM.

Consider `c1cc(-c2cnc(-c3ccc4c(c3)CCCO4)o2)ccn1`, for which the TGI is 47.2 µM.

In a further experiment the test system is OVCAR-3 ovarian. Description: NCI tumour cell line growth inhibition, 48 h.
`CC(=O)C(CN1CCCCC1)C(c1ccccc1)c1c(O)c2ccccc2oc1=O` (configuration not stated) had a TGI of over 100 µM.

For the compound `C/C(=N\NC(=S)NC(C)C)c1nc2ncccc2[nH]1`, the TGI was over 100 µM.

Turning to `O=c1oc2ccccc2c(O)c1C(c1cc(OCc2ccccc2)cc(OCc2ccccc2)c1)c1c(O)c2ccccc2oc1=O`, the TGI was determined as 35 µM.

As to `Cc1cccc(N2C(=O)C3ON(C(C(N)=O)c4ccccc4)C(c4c5ccccc5c(Cl)c5ccccc45)C3C2=O)c1C` (configuration not stated), the TGI was determined as 17.5 µM.

For `Cc1cc(-c2nc3ccccc3s2)ccc1NS(=O)(=O)O`, the TGI is over 100 µM.

As to `c1cc(-c2cnc(-c3ccc4c(c3)CCCO4)o2)ccn1`, the TGI is 33.5 µM.

In the next experiment the test system is NCI-H226 lung. The experiment can be described thus: NCI tumour cell line growth inhibition, 48 h.
As for `CC(=O)C(CN1CCCCC1)C(c1ccccc1)c1c(O)c2ccccc2oc1=O` (configuration not stated), the TGI is over 100 µM.

`C/C(=N\NC(=S)NC(C)C)c1nc2ncccc2[nH]1` showed a TGI of 51.3 µM.

Consider `O=c1oc2ccccc2c(O)c1C(c1cc(OCc2ccccc2)cc(OCc2ccccc2)c1)c1c(O)c2ccccc2oc1=O`, for which the TGI was over 45.3 µM.

For `Cc1cccc(N2C(=O)C3ON(C(C(N)=O)c4ccccc4)C(c4c5ccccc5c(Cl)c5ccccc45)C3C2=O)c1C` (configuration not stated), the TGI is 14.9 µM.

In the case of `Cc1cc(-c2nc3ccccc3s2)ccc1NS(=O)(=O)O`, the TGI was over 100 µM.

Regarding `c1cc(-c2cnc(-c3ccc4c(c3)CCCO4)o2)ccn1`, the TGI is 31.7 µM.

Values taken from PubChem BioAssay (NCI).
